Test results: US20150038545A1, “HYDROXYPHENYL PYRROLE COMPOUNDS CONTAINING AN HYDROXAMIC ACID AS HDAC INHIBITORS AND MEDICINAL APPLICATIONS THEREOF” (UNIVERSIDAD DEL PAÍS VASCO, priority 2011, published 2015)

Key:
Hep3B = assay: Cancer cell growth inhibition (CellTiter-Glo), Hep3B; type: cell-based, Human; settings: Homo sapiens, Liver Cancer, 72 h treatment
Experimental: (§1) Cell culture-based assays were used to evaluate the ability of compounds of the invention to inhibit cancer cell growth.
(§2) Cells were obtained from the American Type Culture Collection (ATCC). Cells were cultured at 37° C. with 5% CO2 in the appropriate growth medium (see table below), and harvested respectively during the logarithmic growth period and counted with hemocytometer. The cell viability was examined by trypan blue exclusion. Cell concentrations were adjusted to 5.56×10^4 cells/ml with respective medium.
(§3) Stock solutions of test compounds and positive drugs Doxorubicin (Zhejiang, Haizheng, China), Cisplatin (Nanjing Zhiyao, China) and Mitomycin (Zhejiang, Haizheng, China) were prepared in dimethyl sulphoxide (DMSO) or PBS at 20 mM.
(§4) In order to determine the IC50 for each compound, experiments were carried out in 96-well plates and the cell lines seeded at a density of 5,000 cells/well. […] All treatments were performed in triplicate. 10 μl of drug solution was added to each well and incubated for 72 hours. At the end of the incubation, 100 μl of the CellTiter-Glo Reagent were added to each well and the contents were mixed for 2 munites on an orbital shaker to induce cell lysis. The plate was incubated at room temperature for 10 minutes to stabilize luminiscent signal, and luminiscent was recorded. […] In order to calculate IC50 values, dose-responsive curves were fitted using nonlinear regression model with a sigmoidal dose response.

SW620 = assay: Cancer cell growth inhibition (CellTiter-Glo), SW620; type: cell-based; settings: Homo sapiens, SW-620; Colorectal Cancer, SW620, 72 h treatment
Experimental: as §1, §2, §3, §4

SK-MEL-5 = assay: Cancer cell growth inhibition (CellTiter-Glo), SK-MEL-5; type: cell-based, Human; settings: Homo sapiens; Melanoma, SK-MEL-5, 72 h treatment
Experimental: as §1, §2, §3, §4

KB = assay: Cancer cell growth inhibition (CellTiter-Glo), KB; type: cell-based, Human; settings: Homo sapiens, Oral Cancer, 72 h treatment
Experimental: as §1, §2, §3, §4

MCG803 = assay: Cancer cell growth inhibition (CellTiter-Glo), MCG803; type: cell-based, Human; settings: Homo sapiens; Gastric Cancer, MCG803, 72 h treatment
Experimental: as §1, §2, §3, §4

| SMILES | IC50 (Hep3B) [µM] | IC50 (SW620) [µM] | IC50 (SK-MEL-5) [µM] | IC50 (KB) [µM] | IC50 (MCG803) [µM] |
| --- | --- | --- | --- | --- | --- |
| O=C(CCCCCNC(=O)c1[nH]c(-c2ccccc2)cc1-c1ccc(O)cc1)NO [Example 1, N-(6-(hydroxyamino)-6-oxohexyl)-3-(4-hydroxyphenyl)-5-phenyl-1H-pyrrole-2-carboxamide] | 1.61 | 1.31 | 1.28 | 0.95 | 1.11 |
| O=C(CCCCCNC(=O)c1[nH]c(-c2ccc(O)cc2)cc1-c1ccccc1)NO [Example 2, N-(6-(hydroxyamino)-6-oxohexyl)-5-(4-hydroxyphenyl)-3-phenyl-1H-pyrrole-2-carboxamide] | 1.6 | 1.48 | 1.87 | 2.23 | 3.08 |
| O=C(CCCCCNC(=O)c1[nH]c(-c2ccc(O)cc2)cc1-c1ccoc1)NO [Example 5, 3-(3-furyl)-N-(5-(hydroxycarbamoyl)pentyl)-5-(4-hydroxy-phenyl)-1H-pyrrole-2-carboxamide] | 1.01 | 0.3 | 0.82 | 0.87 | 2.61 |
| O=C(CCCCCNC(=O)c1[nH]c(-c2ccc(O)cc2)cc1-c1ccsc1)NO [Example 6, N-(5-(hydroxycarbamoyl)pentyl)-5-(4-hydroxyphenyl)-3-(3-thienyl)-1H-pyrrole-2-carboxamide] | 0.89 | 0.67 | 1.02 | 1.45 | 2.82 |
